From PubChem BioAssay (NCI) come the findings set out here.

Structures are written as SMILES. Several values for one entry are separate records, joined by “and”; a condition that tells them apart may be missing. Equal values may be shown once.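 48-hour exposure; five concentrations; linearly interpolated endpoints. The concentration for 50% growth inhibition is given as GI50. TGI is the concentration that stops growth completely.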

One assay deals with SR leukemia. The assay is described as follows: growth of human tumour cells (NCI), 48 h.
Turning to `COc1cc2[nH]c(=O)c3cc(-c4ccccc4)cc4c(Cl)nc(c1OC)c2c43`, the TGI was above 100 µM.

A further assay deals with UO-31 renal. The assay is described as follows: growth of human tumour cells (NCI), 48 h.
Compound `CCc1nc(N)nc(N)c1-c1ccc([N+](=O)[O-])c(NCc2ccccc2)c1` had a TGI of 22.2 µM.

Take `COc1ccc(C2Oc3c(OC)cc(CCCO)cc3C2CO)cc1OC` (stereo not given): the GI50 was 38.9 µM and > 100 µM; the TGI was above 100 µM.

Compound `COc1cc2c3cc1Oc1c(OC)c(OC)cc4c1C(Cc1ccc(O)c(c1)Oc1ccc(cc1)CC3N(C)CC2)CN(C)C4` (stereo not given) registered a TGI of 29.8 µM.

With `COc1cc2[nH]c(=O)c3cc(-c4ccccc4)cc4c(Cl)nc(c1OC)c2c43`, the TGI is above 65.1 µM.

Another assay deals with K-562 leukemia. The assay is described as follows: growth of human tumour cells (NCI), 48 h.
`CCc1nc(N)nc(N)c1-c1ccc([N+](=O)[O-])c(NCc2ccccc2)c1` showed a TGI of 20.7 µM.

`COc1ccc(C2Oc3c(OC)cc(CCCO)cc3C2CO)cc1OC` (stereo not given): the TGI was above 100 µM.

Turning to `COc1cc2c3cc1Oc1c(OC)c(OC)cc4c1C(Cc1ccc(O)c(c1)Oc1ccc(cc1)CC3N(C)CC2)CN(C)C4` (stereo not given), the TGI is 29.6 µM.

Compound `COc1cc2[nH]c(=O)c3cc(-c4ccccc4)cc4c(Cl)nc(c1OC)c2c43` registered a TGI above 100 µM.

For another assay, the system named is IGROV1 ovarian. The assay is described as follows: growth of human tumour cells (NCI), 48 h.
As for `CCc1nc(N)nc(N)c1-c1ccc([N+](=O)[O-])c(NCc2ccccc2)c1`, the TGI was determined as 26.3 µM.

In turn, `COc1ccc(C2Oc3c(OC)cc(CCCO)cc3C2CO)cc1OC` (stereo not given) came in with a TGI above 100 µM.

`COc1cc2c3cc1Oc1c(OC)c(OC)cc4c1C(Cc1ccc(O)c(c1)Oc1ccc(cc1)CC3N(C)CC2)CN(C)C4` (stereo not given) displayed a TGI of 48.9 µM.

On to `COc1cc2[nH]c(=O)c3cc(-c4ccccc4)cc4c(Cl)nc(c1OC)c2c43`, for which the TGI was above 91 µM.

For a further assay, the system named is SF-295 CNS. The assay is described as follows: growth of human tumour cells (NCI), 48 h.
Take `CCc1nc(N)nc(N)c1-c1ccc([N+](=O)[O-])c(NCc2ccccc2)c1`: the TGI amounted to 28.4 µM.

For `COc1ccc(C2Oc3c(OC)cc(CCCO)cc3C2CO)cc1OC` (stereo not given), the TGI was above 100 µM.

Regarding `COc1cc2c3cc1Oc1c(OC)c(OC)cc4c1C(Cc1ccc(O)c(c1)Oc1ccc(cc1)CC3N(C)CC2)CN(C)C4` (stereo not given), the TGI was 32.7 µM.

The compound `COc1cc2[nH]c(=O)c3cc(-c4ccccc4)cc4c(Cl)nc(c1OC)c2c43` had a TGI above 100 µM.

A further assay has as its system TK-10 renal. The assay is described as follows: growth of human tumour cells (NCI), 48 h.
In turn, `CCc1nc(N)nc(N)c1-c1ccc([N+](=O)[O-])c(NCc2ccccc2)c1` came in with a TGI of 53.2 µM.

On to `COc1ccc(C2Oc3c(OC)cc(CCCO)cc3C2CO)cc1OC` (stereo not given), for which the TGI was above 100 µM.

Turning to `COc1cc2c3cc1Oc1c(OC)c(OC)cc4c1C(Cc1ccc(O)c(c1)Oc1ccc(cc1)CC3N(C)CC2)CN(C)C4` (stereo not given), the TGI is 32.2 µM.

Regarding `COc1cc2[nH]c(=O)c3cc(-c4ccccc4)cc4c(Cl)nc(c1OC)c2c43`, the TGI was above 70 µM.

For the next assay, the system named is MOLT-4 leukemia. The assay is described as follows: growth of human tumour cells (NCI), 48 h.
For the compound `CCc1nc(N)nc(N)c1-c1ccc([N+](=O)[O-])c(NCc2ccccc2)c1`, the TGI stood at 26.6 µM.

Take `COc1ccc(C2Oc3c(OC)cc(CCCO)cc3C2CO)cc1OC` (stereo not given): the TGI was 96.7 µM and > 100 µM.

`COc1cc2c3cc1Oc1c(OC)c(OC)cc4c1C(Cc1ccc(O)c(c1)Oc1ccc(cc1)CC3N(C)CC2)CN(C)C4` (stereo not given) yielded a TGI of 54.5 µM.

Regarding `COc1cc2[nH]c(=O)c3cc(-c4ccccc4)cc4c(Cl)nc(c1OC)c2c43`, the TGI is above 44.7 µM.

The next assay has as its system ACHN renal. The assay is described as follows: growth of human tumour cells (NCI), 48 h.
`CCc1nc(N)nc(N)c1-c1ccc([N+](=O)[O-])c(NCc2ccccc2)c1` came in with a TGI of 30.5 µM.

In turn, `COc1ccc(C2Oc3c(OC)cc(CCCO)cc3C2CO)cc1OC` (stereo not given) gave a TGI above 100 µM.

Take `COc1cc2c3cc1Oc1c(OC)c(OC)cc4c1C(Cc1ccc(O)c(c1)Oc1ccc(cc1)CC3N(C)CC2)CN(C)C4` (stereo not given): the TGI was above 100 µM.

In turn, `COc1cc2[nH]c(=O)c3cc(-c4ccccc4)cc4c(Cl)nc(c1OC)c2c43` yielded a TGI of 77.6 µM.

The subject of another assay is T-47D breast. The assay is described as follows: growth of human tumour cells (NCI), 48 h.
`CCc1nc(N)nc(N)c1-c1ccc([N+](=O)[O-])c(NCc2ccccc2)c1`: the TGI was above 46.8 µM.

Take `COc1ccc(C2Oc3c(OC)cc(CCCO)cc3C2CO)cc1OC` (stereo not given): the TGI was above 100 µM.

Consider `COc1cc2c3cc1Oc1c(OC)c(OC)cc4c1C(Cc1ccc(O)c(c1)Oc1ccc(cc1)CC3N(C)CC2)CN(C)C4` (stereo not given), for which the TGI is 69.6 µM.

In the case of `COc1cc2[nH]c(=O)c3cc(-c4ccccc4)cc4c(Cl)nc(c1OC)c2c43`, the TGI is above 100 µM.

In another assay the test system is A549 NSCLC. The assay is described as follows: growth of human tumour cells (NCI), 48 h.
`CCc1nc(N)nc(N)c1-c1ccc([N+](=O)[O-])c(NCc2ccccc2)c1` displayed a TGI of 24.8 µM.

With `COc1ccc(C2Oc3c(OC)cc(CCCO)cc3C2CO)cc1OC` (stereo not given), the TGI is above 100 µM.

In turn, `COc1cc2c3cc1Oc1c(OC)c(OC)cc4c1C(Cc1ccc(O)c(c1)Oc1ccc(cc1)CC3N(C)CC2)CN(C)C4` (stereo not given) returned a TGI of 63.9 µM.

In turn, `COc1cc2[nH]c(=O)c3cc(-c4ccccc4)cc4c(Cl)nc(c1OC)c2c43` registered a TGI above 71.7 µM.

In a further assay the test system is OVCAR-4 ovarian. The assay is described as follows: growth of human tumour cells (NCI), 48 h.
On to `CCc1nc(N)nc(N)c1-c1ccc([N+](=O)[O-])c(NCc2ccccc2)c1`, for which the TGI was determined as 58.1 µM.

Regarding `COc1ccc(C2Oc3c(OC)cc(CCCO)cc3C2CO)cc1OC` (stereo not given), the TGI is above 100 µM.

In turn, `COc1cc2c3cc1Oc1c(OC)c(OC)cc4c1C(Cc1ccc(O)c(c1)Oc1ccc(cc1)CC3N(C)CC2)CN(C)C4` (stereo not given) had a TGI of 39.1 µM.

On to `COc1cc2[nH]c(=O)c3cc(-c4ccccc4)cc4c(Cl)nc(c1OC)c2c43`, for which the TGI is above 64.4 µM.

In a further assay the test system is SK-MEL-5 melanoma. The assay is described as follows: growth of human tumour cells (NCI), 48 h.
With `CCc1nc(N)nc(N)c1-c1ccc([N+](=O)[O-])c(NCc2ccccc2)c1`, the TGI amounted to 22.9 µM.

`COc1ccc(C2Oc3c(OC)cc(CCCO)cc3C2CO)cc1OC` (stereo not given): the GI50 was 36 µM and 12 µM; the TGI was > 100 µM and 31.1 µM.

In turn, `COc1cc2c3cc1Oc1c(OC)c(OC)cc4c1C(Cc1ccc(O)c(c1)Oc1ccc(cc1)CC3N(C)CC2)CN(C)C4` (stereo not given) yielded a TGI of 26.4 µM.

With `COc1cc2[nH]c(=O)c3cc(-c4ccccc4)cc4c(Cl)nc(c1OC)c2c43`, the TGI is 28 µM.

The subject of the next assay is HCT-116 colon. The assay is described as follows: growth of human tumour cells (NCI), 48 h.
In the case of `CCc1nc(N)nc(N)c1-c1ccc([N+](=O)[O-])c(NCc2ccccc2)c1`, the TGI was above 47.3 µM.

Take `COc1ccc(C2Oc3c(OC)cc(CCCO)cc3C2CO)cc1OC` (stereo not given): the TGI was above 100 µM.

Take `COc1cc2c3cc1Oc1c(OC)c(OC)cc4c1C(Cc1ccc(O)c(c1)Oc1ccc(cc1)CC3N(C)CC2)CN(C)C4` (stereo not given): the TGI worked out at 19 µM.

For `COc1cc2[nH]c(=O)c3cc(-c4ccccc4)cc4c(Cl)nc(c1OC)c2c43`, the TGI amounted to 12.9 µM.

A further assay relates to HOP-92 NSCLC. The assay is described as follows: growth of human tumour cells (NCI), 48 h.
`CCc1nc(N)nc(N)c1-c1ccc([N+](=O)[O-])c(NCc2ccccc2)c1` had a TGI of 25.9 µM.

On to `COc1ccc(C2Oc3c(OC)cc(CCCO)cc3C2CO)cc1OC` (stereo not given), for which the TGI is above 100 µM.

As to `COc1cc2c3cc1Oc1c(OC)c(OC)cc4c1C(Cc1ccc(O)c(c1)Oc1ccc(cc1)CC3N(C)CC2)CN(C)C4` (stereo not given), the TGI was determined as 43.4 µM.

In turn, `COc1cc2[nH]c(=O)c3cc(-c4ccccc4)cc4c(Cl)nc(c1OC)c2c43` displayed a TGI above 79.3 µM.

In the next assay the test system is OVCAR-3 ovarian. The assay is described as follows: growth of human tumour cells (NCI), 48 h.
For `CCc1nc(N)nc(N)c1-c1ccc([N+](=O)[O-])c(NCc2ccccc2)c1`, the TGI was found to be 36.6 µM.

`COc1ccc(C2Oc3c(OC)cc(CCCO)cc3C2CO)cc1OC` (stereo not given) displayed a TGI above 100 µM.

Compound `COc1cc2c3cc1Oc1c(OC)c(OC)cc4c1C(Cc1ccc(O)c(c1)Oc1ccc(cc1)CC3N(C)CC2)CN(C)C4` (stereo not given) yielded a TGI of 30.9 µM.

`COc1cc2[nH]c(=O)c3cc(-c4ccccc4)cc4c(Cl)nc(c1OC)c2c43` had a TGI above 100 µM.

A further assay has as its system NCI/ADR-RES ovarian. The assay is described as follows: growth of human tumour cells (NCI), 48 h.
`CCc1nc(N)nc(N)c1-c1ccc([N+](=O)[O-])c(NCc2ccccc2)c1` had a TGI of 38.2 µM.
